Test results: patent publication US20150342956A1, “METHODS OF TREATMENT FOR CONDITIONS MEDIATED BY SUBSTANCE P” (Beller Pharmaceuticals LLC, priority 2014, published 2015)

Assays:
[1] = test system: INS symptoms in patients with a diagnosis of atypical reflux; assay: Retrospective medical record review: global level of improvement (GLI) with immunotherapy and/or oral medications; assay type: in vivo, human; conditions: GLI 0-100% score
Protocol: Some symptoms of INS have previously been associated with atypical reflux. This example describes a retrospective medical record review for cases in which these symptoms were treated with immunotherapy (allergy shots) and/or oral medications (omeprazole, gabapentin, and/or baclofen).
The population for this example included patients 18 years or older with a diagnosis of atypical reflux and a recorded diagnostic code of 530.81 (see, e.g., http://www.cms.gov/Medicare/Coding/ICD9ProviderDiagnosticCodes/index.html). A randomized sample of 307 cases was derived from a total of 650 patients.
Of the 307 cases, 191 (62.2%) patients tested positive for allergy, 74 (24.1%) were negative, and 42 (13.7%) had unknown allergy status. Allergy refers to IgE-mediated allergies such as ragweed, dust mites, trees, grass, pets, stinging insects, peanuts, etc. Of the 191 cases with allergy, 57 (29.8%) had no immunotherapy, 8 (4.2%) had received immunotherapy in the past, and 126 (66.0%) were currently receiving immunotherapy. Of the 126 currently receiving immunotherapy (abbreviated below as “IT”), 70 (55.6%) had reached maintenance dosing (defined as the effective, therapeutic dose; “on main”) and 56 […] had not yet reached maintenance dosing (“not on main”). The period of immunotherapy is about 3-5 years, and individuals typically reach maintenance dosing by the second half of the first year.
Of the 307 cases, 213 (69.3%) were taking one medication and 86 (28%) were taking no medication. Seven patients were taking two medications, and one patient was taking three medications. Three oral medications used to treat INS were compared: high dose acid suppression using omeprazole (40 mg twice a day), baclofen (40 mg twice a day), and gabapentin (300 mg gradually increasing from one to three times a day).
Global level of improvement (GLI) was represented by a 0-100% score. At each clinical visit, patients were asked to estimate the percentage of their overall improvement. Those figures were entered into the medical record as a GLI score. Trials documented as failed (stopped either due to lack of benefit or dose-limiting side effects) or inadequate (dose never titrated to benefit or side effect) are not included in the results below.

INS symptoms = assay: Exemplary cases of INS: patient-ranked symptom severity (1-10) and GLI score before and after treatment; assay type: in vivo, human; conditions: for Global Improvement (global level of improvement): three months (gabapentin stopped more than a month prior)
Protocol: This example describes three exemplary cases of INS. Patients were given a list of INS symptoms and asked to rank those present on a scale of 1-10, with 10 indicating most severe. Treatment was provided (gabapentin, omeprazole, and/or immunotherapy).
Patient two is a person who presented complaining of cough, runny nose, and sneezing. […] They were started on gabapentin (900 mg) and returned in two weeks for re-evaluation. They reported 60% global level of improvement with gabapentin. They were also started on immunotherapy for its long-lasting benefits. They returned for further evaluation three months later to report they had improved by 85% and had stopped the gabapentin more than a month prior to their last visit. Their symptoms were scored for severity from 1 (mild) to 10 (severe) on initial evaluation, after gabapentin, and after three months of immunotherapy. Their scores are below:
Patient three is a person who presented complaining of cough, post nasal drip, and runny nose. […] The patient was started on immunotherapy and returned for follow-up after four months of immunotherapy. Due to their busy schedule the patient had missed several shot visits and their immunotherapy doses were never increased to the maximum, maintenance dose. They were receiving doses at 1/10th of the maintenance dose. They reported 40% improvement. Omeprazole 40 mg two times daily was added to their regimen and they returned for re-evaluation one week later to report 100% improvement. Their symptom scores are below:
Patient one is a child who presented with their parent complaining of shortness of breath and cough. […] Their parent stated that they commonly wet the bed 2-3 times each night. They were started on omeprazole 20 mg twice a day and returned in a week. […] Their parent estimated 45% global level of improvement. The omeprazole was discontinued due to headaches and they were started on gabapentin. Their parent was advised to increase the dose slowly until it seemed to help or was causing side effects. They returned in two weeks for re-evaluation and had achieved 900 mg twice daily on gabapentin. Their parent estimated 85% global level of improvement.

[2] = No IT (no allergy, or positive allergy but no immunotherapy)
[3] = Patient one, omeprazole 20 mg twice a day, one week, then gabapentin 900 mg twice daily, two weeks
[4] = Patient one, score 1-10, 0 = not present, initial visit 0, omeprazole 20 mg twice a day, one week, then gabapentin 900 mg twice daily, two weeks
[5] = Patient one, score 1-10, 0 = not present, initial visit 3, omeprazole 20 mg twice a day, one week, then gabapentin 900 mg twice daily, two weeks
[6] = Patient one, score 1-10, 0 = not present, initial visit 4, omeprazole 20 mg twice a day, one week, then gabapentin 900 mg twice daily, two weeks
[7] = Patient one, score 1-10, 0 = not present, initial visit 5, omeprazole 20 mg twice a day, one week, then gabapentin 900 mg twice daily, two weeks
[8] = Patient one, score 1-10, 0 = not present, initial visit 6, omeprazole 20 mg twice a day, one week, then gabapentin 900 mg twice daily, two weeks
[9] = Patient one, score 1-10, 0 = not present, initial visit 7, omeprazole 20 mg twice a day, one week, then gabapentin 900 mg twice daily, two weeks
[10] = Patient one, score 1-10, 0 = not present, initial visit 8, omeprazole 20 mg twice a day, one week, then gabapentin 900 mg twice daily, two weeks
[11] = Patient one, score 1-10, 0 = not present, initial visit 10, omeprazole 20 mg twice a day, one week, then gabapentin 900 mg twice daily, two weeks
[12] = Patient two, score 1-10, 0 = not present, initial visit 5, gabapentin 900 mg, two weeks, immunotherapy, three months
[13] = Patient two, score 1-10, 0 = not present, initial visit 6, gabapentin 900 mg, two weeks, immunotherapy, three months
[14] = Patient two, score 1-10, 0 = not present, initial visit 7, gabapentin 900 mg, two weeks, immunotherapy, three months
[15] = Patient two, score 1-10, 0 = not present, initial visit 8, gabapentin 900 mg, two weeks, immunotherapy, three months
[16] = Patient two, score 1-10, 0 = not present, initial visit 10, gabapentin 900 mg, two weeks, immunotherapy, three months
[17] = Patient three, score 1-10, 0 = not present, initial visit 5, immunotherapy four months at 1/10th of maintenance dose, then omeprazole 40 mg two times daily added, one week
[18] = Patient three, score 1-10, 0 = not present, initial visit 6, immunotherapy four months at 1/10th of maintenance dose, then omeprazole 40 mg two times daily added, one week
[19] = Patient three, score 1-10, 0 = not present, initial visit 7, immunotherapy four months at 1/10th of maintenance dose, then omeprazole 40 mg two times daily added, one week
[20] = Patient three, score 1-10, 0 = not present, initial visit 10, immunotherapy four months at 1/10th of maintenance dose, then omeprazole 40 mg two times daily added, one week

NCC(CC(=O)O)c1ccc(Cl)cc1 (stereo not shown) [Baclofen, baclofen]
Mean GLI ([1]; IT not on maintenance dosing): 88.33% | Mean GLI ([1]; IT on maintenance dosing): 70.00% | Mean GLI [1, 2]: 53.94% | Mean GLI ([1]; No allergy): 65.00%

NCC1(CC(=O)O)CCCCC1 [Gabapentin, gabapentin]
Global Improvement (global level of improvement, estimated by mother) (INS symptoms; [3]): 85% | Global Improvement (global level of improvement, estimated by mother) (INS symptoms; Patient one, omeprazole 20 mg twice a day, one week, then gabapentin 900 mg twice daily, two weeks, listed as gabapentin): 85% | Frontal Headache severity score (INS symptoms; [4]): 0 | Vulvodynia severity score (INS symptoms; [5]): 0 | Fatigue severity score (INS symptoms; [6]): 2 | Malaise severity score (INS symptoms; [6]): 2 | Nausea severity score (INS symptoms; [6]): 0 | Shortness of breath severity score (INS symptoms; [7]): 5 | Chest Tightness severity score (INS symptoms; [8]): 0 | Watery Eyes severity score (INS symptoms; [8]): 0 | Sore Throat severity score (INS symptoms; [9]): 0 | Cough severity score (INS symptoms; [10]): 3 | Pollakiuria severity score (INS symptoms; [10]): 2 | Post Nasal Drip severity score (INS symptoms; [10]): 3 | Throat Clearing severity score (INS symptoms; [10]): 5 | Bedwetting severity score (INS symptoms; [11]): 0 | Runny Nose severity score (INS symptoms; [11]): 0 | Global Improvement (global level of improvement) (INS symptoms; Patient two, gabapentin 900 mg, two weeks, immunotherapy): 60% | Global Improvement (global level of improvement) (INS symptoms; Patient two, gabapentin 900 mg, two weeks, immunotherapy, listed as gabapentin): 60% | Hoarse Voice severity score (INS symptoms; Patient two, score 1-10, 0 = not present, initial visit 2, gabapentin 900 mg, two weeks, immunotherapy, three months): 1 | Pain in the teeth severity score (INS symptoms; Patient two, score 1-10, 0 = not present, initial visit 3, gabapentin 900 mg, two weeks, immunotherapy, three months): 1 | Ear Pressure severity score (INS symptoms; [12]): 2 | Malaise severity score (INS symptoms; [12]): 1 | Watery Eyes severity score (INS symptoms; [12]): 2 | Fatigue severity score (INS symptoms; [13]): 3 | Shortness of breath severity score (INS symptoms; [13]): 4 | Chest Tightness severity score (INS symptoms; [14]): 2 | Glossodynia severity score (INS symptoms; [14]): 3 | Runny Nose severity score (INS symptoms; [14]): 1 | Sore Throat severity score (INS symptoms; [14]): 1 | Throat Clearing severity score (INS symptoms; [14]): 1 | Vertigo severity score (INS symptoms; [14]): 1 | Post Nasal Drip severity score (INS symptoms; [15]): 1 | Puffy Eyelids severity score (INS symptoms; [15]): 3 | Cough severity score (INS symptoms; Patient two, score 1-10, 0 = not present, initial visit 9, gabapentin 900 mg, two weeks, immunotherapy, three months): 2 | Frontal Headache severity score (INS symptoms; [16]): 1 | Itchy Eyes severity score (INS symptoms; [16]): 1 | Itchy Pharynx severity score (INS symptoms; [16]): 3 | Itchy Skin severity score (INS symptoms; [16]): 4 | Repetitive Sneezing severity score (INS symptoms; [16]): 2 | Sinus Pressure severity score (INS symptoms; [16]): 3 | Mean GLI ([1]; IT not on maintenance dosing): 69.09% | Mean GLI ([1]; IT on maintenance dosing): 70.29% | Mean GLI [1, 2]: 65.58% | Mean GLI ([1]; No allergy): 55.19%

COc1ccc2[nH]c([S+]([O-])Cc3ncc(C)c(OC)c3C)nc2c1 (stereo not shown) [Omeprazole, omeprazole]
Possible side effect (INS symptoms; Patient one, omeprazole 20 mg twice a day, one week, drug discontinued): some headaches | Global Improvement (global level of improvement, estimated by mother) (INS symptoms; [3]): 45% | Global Improvement (global level of improvement, estimated by mother) (INS symptoms; Patient one, omeprazole 20 mg twice a day, one week, then gabapentin 900 mg twice daily, two weeks, listed as omeprazole): 45% | Frontal Headache severity score (INS symptoms; [4]): 8 | Vulvodynia severity score (INS symptoms; [5]): 0 | Fatigue severity score (INS symptoms; [6]): 2 | Malaise severity score (INS symptoms; [6]): 2 | Nausea severity score (INS symptoms; [6]): 0 | Shortness of breath severity score (INS symptoms; [7]): 5 | Chest Tightness severity score (INS symptoms; [8]): 3 | Watery Eyes severity score (INS symptoms; [8]): 2 | Sore Throat severity score (INS symptoms; [9]): 5 | Cough severity score (INS symptoms; [10]): 4 | Pollakiuria severity score (INS symptoms; [10]): 2 | Post Nasal Drip severity score (INS symptoms; [10]): 3 | Throat Clearing severity score (INS symptoms; [10]): 8 | Bedwetting severity score (INS symptoms; [11]): 0 | Runny Nose severity score (INS symptoms; [11]): 5 | Global Improvement (INS symptoms; Patient three, immunotherapy four months at 1/10th of maintenance dose, then omeprazole 40 mg two times daily added, one week): 100% | Ear Pressure severity score (INS symptoms; [17]): 0 | Excessive Ear Wax severity score (INS symptoms; [17]): 1 | Pain in the teeth severity score (INS symptoms; [17]): 0 | Repetitive Sneezing severity score (INS symptoms; [17]): 0 | Epistaxis severity score (INS symptoms; [18]): 0 | Frontal Headache severity score (INS symptoms; [18]): 0 | Pollakiuria severity score (INS symptoms; [18]): 0 | Hoarse Voice severity score (INS symptoms; [19]): 1 | Itchy Eyes severity score (INS symptoms; [19]): 1 | Sore Throat severity score (INS symptoms; [19]): 0 | Watery Eyes severity score (INS symptoms; [19]): 0 | Chest Tightness severity score (INS symptoms; [20]): 0 | Cough severity score (INS symptoms; [20]): 0 | Nasal Congestion severity score (INS symptoms; [20]): 0 | Post Nasal Drip severity score (INS symptoms; [20]): 0 | Runny Nose severity score (INS symptoms; [20]): 0 | Sinus Pressure severity score (INS symptoms; [20]): 0 | Throat Clearing severity score (INS symptoms; [20]): 0 | Vertigo severity score (INS symptoms; [20]): 0 | Mean GLI ([1]; IT not on maintenance dosing): 60.00% | Mean GLI ([1]; IT on maintenance dosing): 80.00% | Mean GLI [1, 2]: 56.67% | Mean GLI ([1]; No allergy): 41.00%
